How the values were obtained:
[1] = tested on: pancreatic cancer stem cell spheroids; test: Test J: disaggregation of and apoptosis in pancreatic cancer stem cell spheroids; format: cell-based; conditions: for effect on formed spheroids: added to pancreatic cancer stem cell spheroids; for exposure resulting in disaggregation of the spheroid and induction of apoptosis: as little as
Experimental: Apoptosis and Growth Inhibition of Pancreatic Cancer Stem Cells (Obtained from PANC-1, Capan-2 and MiaPaCa-2 Cells) by Compound 16 and 3-Cl-AHPC.
The sorted CD44^+/CD24^+ cells were suspended in serum-free stem cell medium containing DMEM/F12 (1:1) supplemented with B27 (Life Technologies, Gaithersburg, Md.), 20 ng/ml EGF (Biomol International, Plymouth, Pa.)), 20 ng/ml fibroblast growth factor (Biomol International, Plymouth, Pa.), and 100 μg/ml gentamycin. Approximately 150-200 cells per well were seeded in an ultra low-attachment 96-well plate (Corning Inc, Lowell, Mass.). 3-Cl-AHPC and compound 16 were added the day after cells were plated or after 7 days of spheroid formation. Spheriods were photographed and measured utilizing a Olympus microscope (OLYMPUS CKX41) and Olympus microscope digital camera with DP2-BSW software (Olympus soft imaging solutions GmbH, Germany).
DMSO (vehicle) and 3-Cl-AHPC treated spheroids were centrifuged at 1000 rpm for 5 minutes, washed in PBS, 22% bovine serum albumin added to the spheroids pellet, 95% ethanol placed on the spheroids pellet and the pellet allowed to harden for 30 minutes. Neutral buffered formalin (10%) was added to fix the cell pellet for at least 2 h and the spheroids were then placed in a labeled plastic tissue embedding cassette containing 10% neutral buffered formalin overnight. The spheroids were processed in a Sakura Tissue-Tek Processor for overnight dehydration in graded ethanol, clearing in xylene and infiltration with paraffin. The spheroids were placed in a 4 μm embedding mold for final paraffin embedding.
The TUNEL assay was performed using the In Situ Cell Death Detection kit, POD (Roche-Applied-Science, Mannheim, Germany) according to the manufacturer's instructions.
The paraffin embedding spheroids were deparaffinized and rehydrated, then tissues sections were incubated with proteinase K solution (10-20 μg/ml) for 30 min. Tissues were then rinsed twice in PBS and reacted with 50 μl of the TUNEL reaction mixture at room temperature for 60 min in a dark, humidified chamber. Sections were again rinsed in PBS and incubated for 30 min with 50 μl of the Converter-POD (RocheApplied-Science) and followed by 3-amino-9-ethylcarbazole (AEC). Sections were then counterstained with hematoxylin. As negative controls, corresponding sections were treated in the same way without terminal, deoxynucleotidyl transferase.

[2] = tested on: FFMA-AML cells; test: Test B: apoptosis of FFMA-AML cells (acridine orange/ethidium bromide, nuclear fragmentation); format: cell-based, human; conditions: for EC50: Homo sapiens, nuclear fragmentation, FIG. 2A/B (96 h), read-out: ED50 of apoptosis induction
Experimental: FIG. 2 illustrates apoptosis induction in FFMA-AML and TF(v-SRC) cells by 3-Cl-AHPC and compound 16. Cells were seeded at 1×10^4 cells/ml, grown for 24 h and then exposed to 1 μM compound 16 or 3-Cl-AHPC A) at various concentrations of the compound for 96 h and B) for increasing times of exposure. C) Induction of apoptosis by 3-Cl-AHPC, all-trans-retinoic acid, 9-cis-retinoic acid and TTNPB in FFMA-AML and TF(v-SRC) cells. The percentage of apoptotic cells was determined using acridine orange and ethidium bromide staining to determine nuclear fragmentation as described in the general biochemical and pharmacological materials and methods. The error bars represent the mean of three separate determinations +/− the standard deviation (SD).
FFMA-AML cells were obtained from a patient with a diagnosis of AML as indicated by the immunophenotyping described in Table 1. This patient was refractory to the chemotherapy regimens consisting of cytosine arabinoside given with daunomycin as well as high-dose cytosine arabinoside. Peripheral blood samples were obtained from the patient utilizing a Wayne State University Institutional Review Board approved protocol and the leukemic blasts were isolated utilizing Ficoll hypaque. […]
Apoptosis of cells was determined by (1) acridine orange and ethidium bromide-staining to assess cells with nuclear fragmentation and chromatin condensation as previously described (Farhana L. et al., Cancer Res. 2006; 65:4909-4917) and (2) flow cytometry assessing Annexin V-FITC binding together with propidium iodide staining (Annexin V-FITC apoptosis Detection kit 1, BD Biosciences, San Diego, Calif.). Data acquisition was done on a FACS Calibur flow cytometer (BD) and analyzed with CellQuest software. […]

[3] = tested on: MiaPaCa-2 cells; test: Test I: apoptosis of MiaPaCa-2 pancreatic cancer cells (Annexin V-FITC/PI); format: cell-based; conditions: 1 μM, 72 h
Experimental: (§1) Pancreatic cancer cell lines (COLO357, PANC-1, Capan-2, AsPc-1 cells and MiaPaCa-2 cells obtained from American Type Culture Collection; ATCC, Rockville, Md.) were treated with 1 μM 3-Cl-AHPC and compound 16 for various times. Apoptosis in cells were analyzed by flow cytometry using Annexin V-FITC binding together with propidium iodide (PI) staining (Annexin V-FITC apoptosis Detection Kit 1, BD Biosciences, San Diego, Calif.). Data acquisition was done on a FACS Calibur flow cytometer (BD) and analyzed with CellQuest software (BD Biosciences). 3-Cl-AHPC and compound 16 mediated inhibition of cell growth were determined by 3-(4,5-dimethylthiazol-2-yl)-2,5-diphenyltetrazolium bromide (MTT) assay. The cells were seeded on 96-well plates at a density of 4×10^4 cells/well in a volume of 200 μl culture medium. 1 μM AHP3 and 3-Cl-AHPC in DMSO (final concentration 0.1%) were added to the cells for various times. […] After discarding the medium, MTT precipitates were solubilized with 200 μl DMSO and the plates read on a BioTeK Synergy HT (BioTeK Instrument Inc., Vermont) at an absorbance 570 nm. […] The spheroids were stained with acridine orange/ethidium bromide staining and immediately visualized and photographed with fluorescence microscope (OLYMPUS CKX41). […] Then spheroids were visualized and photographed with a fluorescence microscope.

[4] = tested on: COLO357 cells; test: Test I: apoptosis of COLO357 pancreatic cancer cells (Annexin V-FITC/PI); format: cell-based; conditions: 1 μM, 48 h
Experimental: as §1

SMILES	effect on formed spheroids [1]	exposure resulting in disaggregation of the spheroid and induction of apoptosis [1]	cells displaying apoptosis ([2]; FIG. 2C, retinoid values over that noted with the vehicle)	EC50 [2]	induction of apoptosis [3]	cells in which induction of apoptosis was noted [4]
O=C(O)C=Cc1ccc(-c2ccc(O)c(C34CC5CC(CC(C5)C3)C4)c2)c(Cl)c1 [Compound 3-Cl-AHPC, 4-[3-(1-adamantyl)-4-hydroxyphenyl]-3-chlorocinnamic acid, reference compound]	resulted in their disaggregation and the induction of apoptosis in the cells comprising the spheroid	500 nM	80%	370 nM	Apoptosis was also noted	80%
O=C(O)/C=C/c1cnc(-c2ccc(O)c(C34CC5CC(CC(C5)C3)C4)c2)nc1 [Compound 16, (E)-3-[2-(3-(1-Adamantyl)-4-hydroxyphenyl)-5-pyrimidinyl]-2-propenoic acid]	resulted in their disaggregation and the induction of apoptosis in the cells comprising the spheroid	500 nM		320 nM	Apoptosis was also noted	80%

Source: US9096544B2, “Therapeutic compounds” (Wayne State University, priority 2009, dated 2015)
